The test concerns the target TNF-α (Homo sapiens, UniProt P01375). The test can be described thus: TNF-α Induced HEK Blue Cellular Assay. It counts as cell-based. The following applies: HEK Blue TNFα reporter cells, TNF-α 100 pg/ml, 24 hrs at 37° C., secreted alkaline phosphatase (QUANTI-Blue, 620 nm). As for the experimental part:
TNF-α Induced HEK Bluet Cellular Assay
Test articles were diluted in DMSO and serially diluted into 384 well assay plate (Corning 3765), at final concentrations ranging from […] to 0.5 nM. HEK Blue™ TNFα reporter cells were added at a final density of 10,000 cell per well in assay media [DMEM (Gibco, cat #21063-029), 10% fetal bovine serum (ExcelBio, cat #FND500), 1% Penicillin-Streptomycin (Solarbio, cat #P1400-100]. TNF-α (R&D 210-TA-020/CF) was then added to the assay plate at a final concentration of 100 pg/ml. This plate was then incubated for 24 hrs at 37° C. and 5% CO2. Secreted alkaline phosphatase expression was then measured using QUANTI-Blue™ (Invivogen), according to manufacturer instructions and read on an Envision microplate reader at 620 nm.
Inhibition data for test compound over a range of concentration was plotted as percentage inhibition of the test compound (100%=maximum inhibition). IC50 values were determined after correcting for background [(sample read-mean of low control)/(mean of high control-mean of low control)] where by the low control is DMSO without stimulation and high control is DMSO with stimulation. The IC50 is defined as the concentration of test compound which produces 50% inhibition and was quantified using the 4 parameter logistic equation to fit the data.

Chain of TNF-α (P01375 77-233 limits assumed): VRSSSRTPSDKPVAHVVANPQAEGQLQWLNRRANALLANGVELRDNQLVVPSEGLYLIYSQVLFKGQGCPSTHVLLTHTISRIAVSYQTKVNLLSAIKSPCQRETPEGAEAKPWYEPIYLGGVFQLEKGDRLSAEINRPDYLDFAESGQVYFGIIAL

Take `Cc1nc2cc(F)c(-c3cnc(OCP(C)(C)=O)nc3)nc2c(N[C@H](C)c2cccc(F)c2F)c1Cl` [Example 124, 3-chloro-N-[(1R)-1-(2,3-difluorophenyl)ethyl]-6-{2-[(dimethylphosphoryl)methoxy]pyrimidin-5-yl}-7-fluoro-2-methyl-1,5-naphthyridin-4-amine]: the IC50 – broadly, the concentration at which inhibition is half-maximal – was no more than 1000 nM.

For the compound `Cc1nc2cc(F)c(-c3ccc(P(C)(C)=O)nc3)nc2c(N[C@@H](C)c2ccc(F)c(F)c2F)c1Cl` (single isomer, unassigned) [Example 110], the IC50 was no more than 100 nM.

Compound `Cc1nc2cc(F)c(-c3cnc(OCP(C)(C)=O)nc3)nc2c(N[C@H](C)c2cc(C#N)ccc2F)c1Cl` [Example 121, 3-[(1R)-1-[(3-chloro-6-{2-[(dimethylphosphoryl)methoxy]pyrimidin-5-yl}-7-fluoro-2-methyl-1,5-naphthyridin-4-yl)amino]ethyl]-4-fluorobenzonitrile] came in with an IC50 of no more than 100 nM.

`CC[C@H](Nc1c(Cl)c(C)nc2cc(F)c(-c3ccc(P(C)(C)=O)nc3)nc12)c1ncccc1F` [Example 68, (S)-(5-(7-chloro-3-fluoro-8-((1-(3-fluoropyridin-2-yl)propyl)amino)-6-methyl-1,5-naphthyridin-2-yl)pyridin-2-yl)dimethylphosphine oxide] came in with an IC50 of no more than 100 nM.

With `Cc1nc2cc(F)c(-c3ccc(P(C)(C)=O)nc3)nc2c(N[C@H](C)c2cc(C#N)ccc2F)c1C` [Example 119, 3-[(1R)-1-({6-[6-(dimethylphosphoryl)pyridin-3-yl]-7-fluoro-2,3-dimethyl-1,5-naphthyridin-4-yl}amino)ethyl]-4-fluorobenzonitrile], the IC50 was no more than 1000 nM.

Compound `Cc1nc2cc(F)c(-c3cnc(P(C)(C)=O)c(F)c3)nc2c(N[C@H](C)c2cc(C#N)ccc2F)c1Cl` [Example 120, 3-[(1R)-1-({3-chloro-6-[6-(dimethylphosphoryl)-5-fluoropyridin-3-yl]-7-fluoro-2-methyl-1,5-naphthyridin-4-yl}amino)ethyl]-4-fluorobenzonitrile] yielded an IC50 of no more than 100 nM.

The compound `Cc1nc2cc(F)c(-c3ccc(P(C)(C)=O)nc3)nc2c(N[C@H](C)c2cc(F)ccc2F)c1Cl` [Example 53, 3-chloro-N-[(1R)-1-(2,5-difluorophenyl)ethyl]-6-[6-(dimethylphosphoryl)pyridin-3-yl]-7-fluoro-2-methyl-1,5-naphthyridin-4-amine] displayed an IC50 of no more than 1000 nM.

For `Cc1nc2cc(F)c(-c3ccc(P(C)(C)=O)nc3)nc2c(N[C@H](C)c2cc(F)cc(Cl)c2)c1Cl` [Example 130, 3-chloro-N-[(1R)-1-(3-chloro-5-fluorophenyl)ethyl]-6-[6-(dimethylphosphoryl)pyridin-3-yl]-7-fluoro-2-methyl-1,5-naphthyridin-4-amine], the IC50 is no more than 1000 nM.

The compound `Cc1nc2cc(F)c(-c3ccc(P(C)(C)=O)nc3)nc2c(N[C@H](C)c2cccc(Cl)c2F)c1Cl` [Example 78, 3-chloro-N-[(1R)-1-(3-chloro-2-fluorophenyl)ethyl]-6-[6-(dimethylphosphoryl)pyridin-3-yl]-7-fluoro-2-methyl-1,5-naphthyridin-4-amine] showed an IC50 of no more than 100 nM.

On to `CC[C@@H](Nc1c(Cl)c(C)nc2cc(F)c(-c3ccc(P(C)(C)=O)nc3)cc12)c1ncccc1F` [Example 102, 3-chloro-6-[6-(dimethylphosphoryl)pyridin-3-yl]-7-fluoro-N-[(1R)-1-(3-fluoropyridin-2-yl)propyl]-2-methylquinolin-4-amine], for which the IC50 was no more than 1000 nM.

In turn, `CC[C@H](Nc1c(Cl)c(C)nc2cc(F)c(-c3cnc(P(C)(C)=O)nc3)nc12)c1ncccc1F` [Example 132, 3-chloro-6-[2-(dimethylphosphoryl)pyrimidin-5-yl]-7-fluoro-N-[(1S)-1-(3-fluoropyridin-2-yl)propyl]-2-methyl-1,5-naphthyridin-4-amine] yielded an IC50 of no more than 1000 nM.

Regarding `Cc1nc2cc(F)c(-c3ccc(P(C)(C)=O)nc3)nc2c(N[C@H](C)c2cc(C#N)ccc2F)c1Cl` [Example 2, 3-[(1R)-1-({3-chloro-6-[6-(dimethylphosphoryl)pyridin-3-yl]-7-fluoro-2-methyl-1,5-naphthyridin-4-yl}amino)ethyl]-4-fluorobenzonitrile], the IC50 is no more than 100 nM.

With `Cc1nc2cc(F)c(-c3cnc(P(C)(C)=O)nc3)cc2c(N[C@H](C)c2cccc(F)c2F)c1Cl` [Example 65, 3-chloro-N-[(1R)-1-(2,3-difluorophenyl)ethyl]-6-[2-(dimethylphosphoryl)pyrimidin-5-yl]-7-fluoro-2-methylquinolin-4-amine], the concentration for half-maximal inhibition (IC50) is no more than 1000 nM.

Compound `CC[C@H](Nc1c(Cl)c(C)nc2cc(F)c(-c3ccc(P(C)(C)=O)nc3)nc12)c1cccc(F)c1F` [Example 96, (S)-(5-(7-chloro-8-((1-(2,3-difluorophenyl)propyl)amino)-3-fluoro-6-methyl-1,5-naphthyridin-2-yl)pyridin-2-yl)dimethylphosphine oxide] returned an IC50 of no more than 100 nM.

As for `C[C@@H](Nc1c(Cl)cnc2cc(F)c(-c3cnc(P(C)(C)=O)nc3)cc12)c1cc(C#N)ccc1F` [Example 12, 3-[(1R)-1-({3-chloro-6-[2-(dimethylphosphoryl)pyrimidin-5-yl]-7-fluoroquinolin-4-yl}amino)ethyl]-4-fluorobenzonitrile], the 50% inhibitory concentration (IC50) is no more than 1000 nM.

In turn, `Cc1nc2cc(F)c(-c3ccc(P(C)(C)=O)nc3)nc2c(N[C@H](C)c2cccc(F)c2F)c1Cl` [Example 50, 3-chloro-N-[(1R)-1-(2,3-difluorophenyl)ethyl]-6-[6-(dimethylphosphoryl)pyridin-3-yl]-7-fluoro-2-methyl-1,5-naphthyridin-4-amine] gave an IC50 of no more than 100 nM.

Consider `CC[C@@H](Nc1c(Cl)c(C)nc2cc(F)c(-c3ccc(OCP(C)(C)=O)nc3)nc12)c1ncccc1F` [Example 108, 3-chloro-6-{6-[(dimethylphosphoryl)methoxy]pyridin-3-yl}-7-fluoro-N-[(1R)-1-(3-fluoropyridin-2-yl)propyl]-2-methyl-1,5-naphthyridin-4-amine], for which the IC50 was no more than 1000 nM.

`Cc1nc2cc(F)c(-c3cnc(P(C)(C)=O)nc3)nc2c(N[C@H](C)c2cccc(C#N)c2)c1Cl` [Example 46, 3-[(1R)-1-({3-chloro-6-[2-(dimethylphosphoryl)pyrimidin-5-yl]-7-fluoro-2-methyl-1,5-naphthyridin-4-yl}amino)ethyl]benzonitrile]: the IC50 was no more than 100 nM.

As for `CC[C@@H](Nc1c(Cl)c(C)nc2cc(F)c(-c3cnc(P(C)(C)=O)nc3)cc12)c1cccc(F)c1F` [Example 114, (R)-(5-(3-chloro-4-((1-(2,3-difluorophenyl)propyl)amino)-7-fluoro-2-methylquinolin-6-yl)pyrimidin-2-yl)dimethylphosphine oxide], the half-inhibitory concentration (IC50) was no more than 100 nM.

As for `Cc1nc2cc(F)c(-c3ccc(P(C)(C)=O)nc3)nc2c(N[C@H](C)c2cccc(C(F)(F)F)c2)c1Cl` [Example 93, 3-chloro-6-[6-(dimethylphosphoryl)pyridin-3-yl]-7-fluoro-2-methyl-N-[(1R)-1-[3-(trifluoromethyl)phenyl]ethyl]-1,5-naphthyridin-4-amine], the IC50 was no more than 100 nM.

Consider `Cc1nc2cc(F)c(-c3cnc(P(C)(C)=O)nc3)nc2c(N[C@H](C)c2ccccc2C(F)(F)F)c1Cl` [Example 55, 3-chloro-6-[2-(dimethylphosphoryl)pyrimidin-5-yl]-7-fluoro-2-methyl-N-[(1R)-1-[2-(trifluoromethyl)phenyl]ethyl]-1,5-naphthyridin-4-amine], for which the IC50 is 10000 to 30000 nM.

The values above are taken from patent US12338262B2 (Forward Therapeutics, Inc., priority 2022, dated 2025).
